From patent US10653693B2, “PRMT5 inhibitors and uses thereof” (Epizyme, Inc., priority 2014, dated 2020)
Like-named read-outs stand apart in the source and are kept apart here.

Experiments:
Jeko-1 = experiment: Long-term proliferation (LTP) assay; format: cell-based; settings: Homo sapiens
Z-138 xenograft model = experiment: 21 day mantle cell lymphoma xenograft study: TGI and tumor methyl mark; format: in vivo; settings: Z-138 efficacy study; all dose groups tested; day 21
Description: Data presented in this example were determined after analysis of 21 day samples of mantle cell lymphoma tumors. Cmin PK samples were taken prior to the last dose on day 21. Tumors were excised, weighed and processed for methyl mark. Methyl mark reduction was measured in tumor samples and is shown as percent of vehicle control (POC). […] Tumor growth inhibition was determined using tumor volume reduction at day 21 expressed as a percent of POC. In vivo inhibition curves were also generated and IC50 values determined. Plasma levels from each group are averaged from 5 animals. […] The average body weight loss (BWL) in all groups was <6%. All doses tested show >50% TGI. […] The average BWL in all groups was <4%. The average BWL in all groups was <8%, except in the 100 mg/kg does group were 4 animals exceeded BWL of 15%.

Jeko-1 cells = experiment: Gene expression of apoptotic response genes (real time PCR); format: cell-based, Human; settings: day 4
Description: (§1) The fold change was calculated using the Comparative Ct method ([…]). N=1. A previous RNA Seq study in MCL cell lines using a tool compound with the same cellular potency as Formula B identified expression changes in a number of genes involved in the apoptotic response (unpublished results). These genes included the Bcl-2 family members PUMA and BAX, well characterized drivers of the apoptotic response. Other genes implicated in the apoptotic response were also identified and include PHLDA3, TP53I3, p21, APOBEC3H, TRIM22, and FAS.

Mino cells = experiment: as above; format: cell-based, Human; settings: day 4
Description: as §1

Granta-519 = experiment: as above; format: cell-based, Human; settings: day 4
Description: as §1

[1] = system: sDMA methylation in bone marrow (surrogate tissue); experiment: sDMA Western blot of bone marrow samples from Z-138 efficacy study; format: in vivo; settings: bone marrow harvested on day 21
Z138 cells = experiment: Western analysis (sDMA, cleaved Caspase-3, cleaved PARP); format: cell-based, Human; settings: 1 μM, 1-5 days
Description: Z138 cells were seeded at approximately […] in IMDM+10% horse serum media. Cells were treated with 1 μM of compound for 1, 2, 3, 4, or 5 days. Cell pellets were collected by centrifuging at 500×g for 5 minutes, washing once with PBS, and freezing at −80° C. until ready to be processed.
Protein lysates were prepared by adding RIPA buffer (Sigma R0278) containing protease inhibitor (about 5× the volume of the cell pellet, or roughly 250 μL) to each cell pellet and pipetting to resuspend. Samples were sonicated with 10×1 second pulses then centrifuged at maximum speed (13,300 RPM) for 6 minutes. Supernatant (200 μL) was transferred to a fresh Eppendorf tube, and pellets were discarded. Protein concentration was determined using a Pierce BCA Protein Assay kit.
Protein gel samples were prepared by combining 20 μg of lysate with appropriate volumes of Life Technologies NuPage Sample Reducing Agent, LDS Sample Buffer, and RIPA buffer. Gel samples were heated for 5-10 minutes at 100° C. in a heat block. A 15-well Invitrogen 4-12% Bis-Tris NuPAGE-SDS gel was loaded with a volume of 19 μL per well, and run in MES SDS buffer at 150V for about 1 hour or until maximal separation of bands was achieved.
Gels were transferred onto nitrocellulose membranes using an Invitrogen iBlot system. […]

[2] = system: Z-138 cells overexpressing full length (FL) MDM4; experiment: Cell cycle analysis of transduced Z138 cell lines; format: cell-based, Human; settings: 50 nM or 500 nM; 2, 3, or 4 days
Description: 1×10^6 Z138 cells were seeded in a 6-well tissue culture dish in a volume of 3 mL IMDM+10% horse serum per well. Lentiviruses (MDM4 or EGFP in pLEX vector) were prepared as previously described or purchased from Santa Cruz Biotechnology (cat. # sc-29435-V and sc-108080 for p53 shRNA or scrambled shRNA lentiviruses, respectively). Lentiviral particles were added to seeded cells at […] and supplemented with polybrene at 8 μg/mL. 6-well plates were sealed with Parafilm and spun at 1000×g for 90 minutes at 37° C. for lentiviral treatment. The contents of each well were then collected into separate 15 mL conical tubes and spun at 1000×g for 5 minutes. Supernatant (containing lentivirus and polybrene) was discarded and the cell pellet was resuspended in 3 mL of IMDM+10% horse serum. […]
Transduction efficiency was evaluated for EGFP-transduced cells using fluorescence microscopy. […]
Cells were seeded at 250,000 cells/well in 6-well tissue culture dishes in a volume of 3 mL IMDM+10% horse serum (supplemented with 0.5 μg/mL puromycin for transduced cell lines). […] Pellets were frozen at −80° C. until ready to process. […]
Samples were processed by FACS on a Becton Dickinson FACSCalibur machine. The percentage of cells in each cell cycle stage was determined using the cell cycle function on the gated single cell population with FlowJo V10 software.

Row | Compound | IC50 (Jeko-1; 264 h, 11-day treatment, N = 1, read-out: Formula B LTP IC50) [nM] | IC90 (Jeko-1; 264 h, 11-day treatment, N = 1, read-out: Formula B LTP IC90) [nM] | IC50 (Jeko-1; Table 3, read-out: LTP IC50) [nM] | methyl mark in tumors (sDMA Western blot) (Z-138 xenograft model) | effects in any of the genes tested (Jeko-1 cells) | effects in any of the genes tested (Mino cells) | gene expression for p21, TRIM22, and FAS (Granta-519) | increase in the gene PHLDA3 (Granta-519) [fold] | levels of sDMA methylation in bone marrow [1] | cell death pathways (cleaved Caspase-3 and cleaved PARP) by Western (Z138 cells) | inhibition of PRMT5 (sDMA, symmetric dimethylarginine) by Western (Z138 cells) | sensitivity of cells overexpressing full length (FL) MDM4 to PRMT5 inhibition [2]
1 | CC(=O)N1CCC(Nc2cc(C(=O)NC[C@H](O)CN3CCc4ccccc4C3)ccn2)CC1 [Formula B] | 14 | 149 | 5.2 | completely removed | did not show any significant effects | did not show any significant effects | only modest increases | ≤ 10 | More of a dose-dependent response | – | – | –
2 | O=C(NC[C@H](O)CN1CCc2ccccc2C1)c1ccnc(NC2CCC2)c1 [Formula C] | – | – | – | – | – | – | – | – | – | induction of cell death pathways | time-dependent inhibition | less sensitive
